# Source: patent US4060652A (priority 1976, dated 1977)
# “Also recorded” adds a separate entry of the source.
# Assays:
# [1] = system: nervomuscular conduction, anterior tibial muscle; assay: Nervomuscular block in cats, indirect stimulation of anterior tibial muscle; assay type: in vivo
# Procedure: The preparation was studied in acute experiments on cats, rabbits, mice and pigeons, in experiments on phrenico-diaphragm preparations of rats, and also on the straight muscle of a frog abdomen. The properties of Tercuronium were compared with those of α-tubocurarin and pancuronium.
# (§1) Cats were narcotized (with chloralose, 50 mg per kg body weight, and urethane, 500 mg/kg, intraperitoneally) or decerebrated at the quadrigeminal bodies level. The lungs were ventilated artificially whenever necessary. Contractions of the anterior tibial muscle were recorded in isotonic concitions in response to electric stimulation of the peripheral part of n. peroneus with supramaximum pulses of 0.1 msec at a frequency of 0.1-100 Hz.
# [2] = system: nervomuscular conduction, anterior tibial muscle; assay: Neostigmin antagonism of nervomuscular block in cats; assay type: in vivo
# Procedure: as §1
# For example, even with a 5-fold dose of tercuronium, muscle contractility was restored already in 2 to 5 minutes following a single injection of neostigmin in a dose of 0.1 mg/kg, and in 15-20 minutes the recovery of the contactile function was complete.
# In the case of pancuronium and α-tubocurarin, the restoration within these short periods of time could only be attained with 2-3 fold doses of these muscle relaxants. If the dose of pancuronium was increased 4 to 5 times, weak contractions of the muscle were observed not sooner than in 9 to 10 minutes and the contraction was, restored completely only 30 minutes after the injection of neostigmin (six experiments). The restoration of muscle contractility is delayed even longer in the case of α-tubocurarin.
# [3] = Lethality by paralysis of respiratory muscles in rabbits; conditions: rabbit, in vivo
# Description: In another series of experiments, we determined the intravenous dose of the muscle relaxants that caused death of 50% of the animals due to paralysis of the respiratory muscles -- lethal dose 50% (LD50).
# pigeons = assay: Paralysis in pigeons; assay type: in vivo
# [4] = system: phrenico-diaphragm preparations; assay: Block of nervomuscular conduction in isolated phrenico-diaphragm preparations; parameters: species or system rats; conditions: rat, isolated by the Bulbring method
# Description: In experiments on phrenico-diaphragm preparations of rats, isolated by the Bulbring method, the block of the nervomuscular conduction developed under the action of Tercuronium in a concentration of 2 × 10^-6 m/litre.
# [5] = system: straight muscles of the frog abdomen; assay: Isolated straight muscle of frog abdomen, antagonism of acetylcholine; parameters: species or system frog (Rana tempraria)
# Description: In experiments on isolated straight muscles of the frog abdomen (Rana tempraria) the concentration of Tercuronium, that weakened the action acetylcholine, was 2.0 ± 0.04 × × 10^-7 m/l.
# [6] = Effect on arterial pressure in cats and rabbits; assay type: in vivo; conditions: rabbit, in vivo, iv, artificial ventilation
# Procedure: (§2) Experiments were carried out on narcotized cats and rabbits (50 mg/kg of chloralose and 500 mg/kg urethane, intraperitoneally) and also on cats decerebrated at the quadrigeminal level. The blood pressure in the carotid artery was recorded with a mercury pressure gauge. The preparations were injected intravenously.
# (§3) When Tercuronium was given in a quantity ten times exceeding the myoparalytic dose (0.8 mcM/kg) an insignificant and transient reduction (10 to 20 mm Hg) of the blood pressure was observed. The animals (7 cats and 5 rabbits) tolerated injections of very large doses of Tercuronium, viz., 10-20 mcM/kg, which is 200 times higher than the myoparalytic dose. […] In all experiments, in 1 to 2 hours, the arterial pressure restored completely or was close to the initial level.
# arterial pressure = assay: Effect on arterial pressure in cats and rabbits; assay type: in vivo
# Procedure: as §2, §3
# [7] = Effect on sympathetic ganglia, third eyelid contraction in cats; assay type: in vivo; conditions: cat, in vivo, iv, read-out: ganglioblocking dose as multiple of myoparalytic dose
# Procedure: (§4) Experiments were carried out on narcotized cats. A peripheral part of the sympathetic column on the neck was stimulated with electric pulses at 5 Hz. The duration of the stimulus was 1 msec, the amplitude 5 V. The contractions of the third eyelid (nictiating membrane) and the arterial (carotid) pressure were recorded with a mercury pressure gauge. We determined the intravenous dose of Tercuronium, α-tubocurarin and pancuronium that decreased the height of contraction of the third eyelid by 50 to 60 percent in conditions of prolonged stimulation of the sympathetic column.
# sympathetic ganglia = assay: as above; assay type: in vivo
# Procedure: as §4
# M-cholinoreceptors = assay: Depression after intravenous acetylcholine in cats; assay type: in vivo; conditions: 0.1 to 1.0 mcM/kg; acetylcholine 3 mg/kg; three cats
# Procedure: Experiments were carried out on narcotized cats (chloralose and urethane, intraperitoneally).
# [8] = system: blood coagulation and erythrocytes; assay: Effect on blood coagulation rate and resistance of erythrocytes; assay type: in vivo; conditions: two rabbits, two narcotized cats
# rabbits = assay: Allergizing action, Arthus-Sakharov phenomenon in rabbits; assay type: in vivo; conditions: seven subcutaneous injections at 5-day intervals
# Procedure: In order to study the allergizing action of Tercuronium, we used the Arthus-Sakharov phenomenon. Experiments were carried on three rabbits. Tercuronium was injected to each rabbit in a dose of […] subcutaneously on the left side of the back in a volume of 0.2 to 0.25 ml, and 1 ml of horse serum was injected into the right side of the back (also subcutaneously). We made seven injections at 5-day in tervals. Horse serum alone was injected to the fourth (control) rabbit in the same order.
# [9] = system: postsynaptic membrane of skeletal muscle; assay: Site of action: close intra-arterial acetylcholine and direct stimulation; assay type: in vivo; conditions: cats
# Procedure: as §1
# The blocking effect of Tercuronium is due to its action on the postsynaptic membrane of skeletal muscle.
# [10] = system: nervomuscular conduction, vegetative ganglia, circulation; assay: Overall conclusions from animal experiments; assay type: in vivo, animals
# Description: The results of the pharmacological studies of the proposed muscle relaxant Tercuronium, as compared with the known muscle relaxants, enable us to make the following conclusions.
# [11] = 0.08 micromole per kg intravenous
compound,measurement,setting,value
"CC[N+](CC)(CC)c1ccc(-c2ccc(-c3ccc([N+](CC)(CC)CC)cc3)cc2)cc1 [Tercuronium, p,p""-bis-triethylammonio-n-terphenyl dibenzenesulphonate]",dependence of block on stimulation frequency,[1],more manifest with increasing frequency of pulse stimuli; also recorded: tetanization of the motor nerve at a frequency of 50 to 100 Hz produces a pessimal reaction in the muscle
same,influence of other agents on action,[1],"lessened by the action of neostigmin, succinylcholine, decamethonium, and acetylcholine and strengthened by α-tubocurarin"
same,mean duration of effect,[1],eight
same,block of nervomuscular conduction,[1]; [11],95-100%
same,time to block following injection,[1]; [11],40 to 60 s
same,time to complete restoration of muscle contractility,[1]; after injection,10 ± 1.5 min
same,dose blocking nervomuscular conduction (95-100 percent),"[1]; intravenous, 0.1 Hz",0.08 ± 0.002 micromole per kg
same,time to complete recovery of contractile function after neostigmin,"[2]; 5-fold dose, neostigmin 0.1 mg/kg",15 to 20 min
same,strength of neostigmin antagonism compared with other relaxants,[2]; cats,stronger that toward α-tubocurarin or pancuronium; also recorded: stronger with Tercuronium than with pancuronium or α-tubocurarin
same,number of myoparalytic doses whose blocking effect is completely removed by neostigmin,"[2]; neostigmin 0.1 mg/kg intravenous, within five minutes",five
same,restoration from block by neostigmin,[2]; neostigmin 0.05 to 0.1 mg/kg intravenous,fully and immediately restored
same,LD50,[3]; intravenous,0.03 µmol/kg
same,selectivity ratio,[3]; read-out: LD50 to HDD ratio,1.4
same,effect in pigeons,pigeons; 0.2 mcM/kg intravenous,weak paralysis developed; also recorded: shows the nondepolarizing effect as well
same,ED50,"pigeons; Columbidae, pigeons, intravenous",0.2 µmol/kg
same,concentration blocking nervomuscular conduction,[4],2 × 10^-6 m/litre
same,contractions produced in the muscle,[5],did not produce contractions in the muscle
same,selectivity ratio,"[6]; 10-20 mcM/kg, read-out: tolerated dose as multiple of myoparalytic dose",200
same,MTD,"[6]; cats and rabbits, read-out: tolerated dose",10 to 20 µmol/kg
same,blood pressure at very large doses,arterial pressure; 10-20 mcM/kg,quickly and sharply dropped and then slowly normalized
same,arterial pressure on doses that inhibit respiration,arterial pressure; active ventilation of the lungs,asphyxial rise in the arterial pressure
same,effect on arterial pressure of myoparalytic (complete block) dose,arterial pressure; artificial ventilation,the arterial pressure was not affected
same,reduction of blood pressure,arterial pressure; ten times the myoparalytic dose (0.8 mcM/kg),10-20 mm Hg
same,"effect on arterial pressure, comparison",arterial pressure; versus the other two muscle relaxants,mildest effect on the arterial pressure
same,selectivity ratio,[7],10 to 15
same,arterial pressure at ganglioblocking dose,sympathetic ganglia,the arterial pressure dropped as well
same,depression after intravenous acetylcholine,M-cholinoreceptors,did not produce depression
same,blood coagulation rate and resistance of the erythrocytes,[8],did not discover any effect
same,local allergic reaction,rabbits,no reaction
same,site of blocking action,[9],"contraction of muscles induced by acetylcholine injected by the close intra-arterial method, was inhibited simultaneously with the block of the nervomuscular condution; also recorded: it contracted in response to direct stimuli"
same,blood pressure at ten-fold dose,"[10]; cats, ten-fold dose",only slightly reduced
same,nervomuscular blocking activity compared with pancuronium,[10]; experiments on animals,somewhat lower than of pancuronium
same,"histamine, vegetative ganglia, blood pressure and heart frequency",[10]; myoparalytic dose,"does not produce histamine, does not block vegetative ganglia or affect the blood pressure and frequency of heart contractions"
same,frequency of heart contraction,[10]; ten times the myoparalytic dose,does not affect the frequency of heart contraction
